Laboratory results reported in ChEMBL document CHEMBL1201862, “PubChem BioAssay data set” (2004).
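All cell lines were grown in 96-well plates and treated with compound for 48 hours. The concentration for 50% growth inhibition is given as GI50.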 The source made the active and inactive calls. Rule as the data show it: active = GI50 up to about 1.1 µM and inactive = higher.

Experiments:
Assay in all cases: NCI tumour cell line growth inhibition, 48 h
OVCAR-5 = test system: OVCAR-5
LOX IMVI = test system: LOX IMVI
M14 = test system: M14
CAKI-1 = test system: CAKI-1
SK-MEL-2 = test system: SK-MEL-2
HCC 2998 = test system: HCC 2998
HCT-15 = test system: HCT-15
KM12 = test system: KM12
M19-MEL = test system: M19-MEL
NCI-H23 = test system: NCI-H23
SF-295 = test system: SF-295
EKVX = test system: EKVX
NCI-H522 = test system: NCI-H522
SK-MEL-28 = test system: SK-MEL-28
DLD-1 = test system: DLD-1
SF-539 = test system: SF-539
SK-OV-3 = test system: SK-OV-3
A498 = test system: A498
MDA-MB-435 = test system: MDA-MB-435
BT-549 = test system: BT-549

Row | Compound | GI50 (OVCAR-5) | GI50 (LOX IMVI) | GI50 (M14) | GI50 (CAKI-1) | GI50 (SK-MEL-2) | GI50 (HCC 2998) | GI50 (HCT-15) | GI50 (KM12) | GI50 (M19-MEL) | GI50 (NCI-H23) | GI50 (SF-295) | GI50 (EKVX) | GI50 (NCI-H522) | GI50 (SK-MEL-28) | GI50 (DLD-1) | GI50 (SF-539) | GI50 (SK-OV-3) | GI50 (A498) | GI50 (MDA-MB-435) | GI50 (BT-549)
1 | O=C(c1ccccc1)[C@H]1Nc2ccc(Cl)cc2[C@H]2OCCC[C@@H]12 | 15.9 µM (inactive) | 16.7 µM (inactive) | 17.5 µM (inactive) | 23 µM (inactive) | 25.4 µM (inactive) | 22.2 µM (inactive) | 23.1 µM | 19 µM (inactive) | 23 µM (inactive) | 24.7 µM (inactive) | 17 µM (inactive) | 23.4 µM (inactive) | 14.1 µM (inactive) | 18.2 µM (inactive) |  |  |  |  |  | 
2 | C[P+](C)(C)c1ccccc1 | > 100 µM (inactive) | > 100 µM (inactive) | > 100 µM (inactive) | > 100 µM (inactive) | > 100 µM (inactive) | > 100 µM (inactive) | > 100 µM | > 100 µM (inactive) | > 100 µM (inactive) | > 100 µM (inactive) | > 100 µM (inactive) | > 100 µM (inactive) |  | > 100 µM (inactive) | > 100 µM (inactive) | > 100 µM (inactive) | > 100 µM (inactive) |  |  | 
3 | Cn1c(=O)n(CC2CS2)c2ccccc21 (stereo not drawn) | > 100 µM (inactive) | > 100 µM (inactive) | > 100 µM (inactive) | 44.5 µM (inactive) | > 100 µM (inactive) | > 100 µM (inactive) | > 100 µM | > 100 µM (inactive) | > 100 µM (inactive) |  | > 100 µM (inactive) | > 100 µM (inactive) | > 100 µM (inactive) | > 100 µM (inactive) | > 100 µM (inactive) | > 100 µM (inactive) | > 100 µM (inactive) |  |  | 
4 | CS/C(=N\c1ccccc1)N(c1ccccc1)c1nc(=[N+](C)C)ss1.[O-][Cl+3]([O-])([O-])[O-] | 15.3 µM (inactive) | 3.15 µM (inactive) | 1.13 µM (inactive) | 3.48 µM (inactive) | 2.01 µM (inactive) | 5.35 µM (inactive) | 2.26 µM | 2.65 µM (inactive) | 0.0877 µM (active) | 4.48 µM (inactive) | 12.5 µM (inactive) | 15.3 µM (inactive) | 0.353 µM (active) | 1.14 µM (inactive) |  | 4.15 µM (inactive) | 23.9 µM (inactive) | 12.4 µM (inactive) |  | 
5 | Cc1cc(O)nc(NNC(C#N)c2cccc(O)c2)n1 (stereo not drawn) | > 100 µM (inactive) | > 100 µM (inactive) | > 100 µM (inactive) | > 100 µM (inactive) | > 100 µM (inactive) |  | > 100 µM | > 100 µM (inactive) | > 100 µM (inactive) | > 100 µM (inactive) | > 100 µM (inactive) |  | > 100 µM (inactive) | > 100 µM (inactive) | > 100 µM (inactive) | > 100 µM (inactive) | > 100 µM (inactive) |  |  | 
6 | O=C(c1ccc(O)cc1O)C1C(c2ccc(O)cc2)OC(c2ccc(O)cc2)C1C(=O)c1ccc(O)cc1O (stereo not drawn) | 12.6 µM (inactive) | 19.5 µM (inactive) | 18 µM (inactive) | 45.6 µM (inactive) | 22 µM (inactive) | 13.8 µM (inactive) |  | 21.9 µM (inactive) | 19.6 µM (inactive) | 30 µM (inactive) | 25.5 µM (inactive) | 21.2 µM (inactive) | 16.5 µM (inactive) | 19.4 µM (inactive) | 44.1 µM (inactive) | 20 µM (inactive) |  |  |  | 
7 | C=C1C(=O)O[C@@H]2C[C@]3(C)[C@@H](C[C@H]12)[C@](C)(O)CC[C@@H]3O | > 100 µM (inactive) | 55.7 µM (inactive) | 31.5 µM (inactive) | 66.1 µM (inactive) | 69.2 µM (inactive) | > 100 µM (inactive) | 52.4 µM | 37.8 µM (inactive) | 43.9 µM (inactive) | 30.1 µM (inactive) | > 100 µM (inactive) | > 100 µM (inactive) | 34.8 µM (inactive) | 65.2 µM (inactive) | 41 µM (inactive) | 34 µM (inactive) | > 100 µM (inactive) |  |  | 
8 | COc1ccc(/C=N/NC(=O)c2ccc(O)c(CN(C)C)c2)cc1 | > 100 µM (inactive) | > 100 µM (inactive) | > 100 µM (inactive) | > 100 µM (inactive) | > 100 µM (inactive) | > 100 µM (inactive) | > 100 µM | > 100 µM (inactive) |  | > 100 µM (inactive) | > 100 µM (inactive) | > 100 µM (inactive) | 10.5 µM (inactive) | > 100 µM (inactive) |  | > 100 µM (inactive) | > 100 µM (inactive) | 18.2 µM (inactive) | 47.3 µM (inactive) | > 100 µM (inactive)
9 | Cn1c(=O)sc2cc(C(=S)N3CCOCC3)ccc21 | > 100 µM (inactive) | > 85.7 µM (inactive) | > 100 µM (inactive) | > 100 µM (inactive) | > 100 µM (inactive) | > 100 µM (inactive) | > 92.3 µM | > 100 µM (inactive) |  | > 100 µM (inactive) | > 100 µM (inactive) | > 28.8 µM (inactive) | 87.3 µM (inactive) | > 100 µM (inactive) |  | > 100 µM (inactive) | > 100 µM (inactive) | > 100 µM (inactive) | > 100 µM (inactive) | > 100 µM (inactive)
10 | NC(=O)N/N=C1\CC2C3CC4C2C4C13 (stereo not drawn) | > 100 µM (inactive) | > 100 µM (inactive) | > 100 µM (inactive) | > 100 µM (inactive) | > 100 µM (inactive) | > 100 µM (inactive) | > 100 µM | > 100 µM (inactive) |  | > 100 µM (inactive) | > 100 µM (inactive) | > 100 µM (inactive) | > 100 µM (inactive) | > 100 µM (inactive) |  | > 100 µM (inactive) | > 100 µM (inactive) | > 100 µM (inactive) | > 100 µM (inactive) | > 100 µM (inactive)
11 | Cc1cccc(NC(=O)/C=C/c2ccccc2)c1C | > 100 µM (inactive) | > 100 µM (inactive) | > 100 µM (inactive) | > 100 µM (inactive) | > 100 µM (inactive) | > 100 µM (inactive) | > 100 µM | > 100 µM (inactive) |  | > 100 µM (inactive) | > 100 µM (inactive) | > 100 µM (inactive) | > 100 µM (inactive) | > 100 µM (inactive) |  | > 100 µM (inactive) | > 100 µM (inactive) | > 100 µM (inactive) | > 100 µM (inactive) | > 100 µM (inactive)
12 | Cc1ccc(C(=O)CC2=Nc3nnc(CCCCCCCc4nnc5n4C(=O)C(CC(=O)c4ccc(C)cc4)=N5)n3C2=O)cc1 | > 100 µM (inactive) | > 100 µM (inactive) | > 100 µM (inactive) | > 100 µM (inactive) |  | > 100 µM (inactive) | > 100 µM | > 100 µM (inactive) | > 100 µM (inactive) | > 100 µM (inactive) | > 100 µM (inactive) | > 100 µM (inactive) | > 100 µM (inactive) | > 100 µM (inactive) | > 100 µM (inactive) | > 100 µM (inactive) | > 100 µM (inactive) |  |  | 
